Values after ≈ are worked out from the molar mass of the structure shown. Active and inactive are the calls of the source. The calls are words filed in the database; no cut-off is given here.
How the values were obtained:
Mus musculus [1] = assay: Toxicity in nude BALB/cA mouse xenografted with human MDA-MB-436 cells harboring BRCA1 mutant assessed as weight loss at 50 mg/kg, po administered once daily for 21 consecutive days measured twice per week; format: organism-based; details: in vivo
[2] = target: T1, Poly [ADP-ribose] polymerase 1 (Homo sapiens, UniProt P09874); assay: Inhibition of PARP1 in BRCA1 deficient human MDA-MB-436 cells assessed as increase in DNA double stranded breaks by measuring gammaH2AX levels after 48 hrs by Western blot analysis; format: cell-based
[3] = target: T1, Poly [ADP-ribose] polymerase 1; assay: Inhibition of PARP1 in BRCA1 deficient human MDA-MB-436 cells assessed as increase in DNA double stranded breaks by measuring gammaH2AX levels after 72 hrs by Western blot analysis; format: cell-based
[4] = target: T1, Poly [ADP-ribose] polymerase 1; assay: Inhibition of PARP1 in BRCA2 deficient human Capan1 cells assessed as increase in DNA double stranded breaks by measuring gammaH2AX levels after 72 hrs by Western blot analysis
[5] = target: T1, Poly [ADP-ribose] polymerase 1; assay: Inhibition of PARP1 in human Capan1 cells assessed as increase in phosphorylated ATM protein levels at 0.1 to 1 uM after 48 hrs by Western blot analysis; format: cell-based
MDA-MB-436 [6] = assay: Induction of apoptosis in human MDA-MB-436 cells assessed as late apoptotic cells at 1 uM after 96 hrs in presence of pancaspase inhibitor Z-VAD-FMK by Annexin V-FITC/propidium iodide double-staining based flow cytometery (reference value: 5.11%); format: functional
CAPAN-1 [7] = assay: Cell cycle arrest in human Capan1 cells assessed as accumulation at G0/G1 phase at 10 uM after 72 hrs by propidium iodide-staining based flow cytometry (reference value: 63.33%); format: functional
CAPAN-1 [8] = assay: Cell cycle arrest in human Capan1 cells assessed as accumulation at G0/G1 phase at 0.1 uM after 72 hrs by propidium iodide-staining based flow cytometry (reference value: 63.33%); format: functional
Mus musculus [9] = assay: Toxicity in nude BALB/cA mouse xenografted with human MDA-MB-436 cells harboring BRCA1 mutant assessed as mortality at 50 mg/kg, po administered once daily for 21 consecutive days measured twice per week; format: organism-based; details: in vivo
CAPAN-1 [10] = assay: Cell cycle arrest in human Capan1 cells after 72 hrs by propidium iodide-staining based flow cytometry; format: functional
[11] = Cmax in Sprague-Dawley rat at 5 mg/kg, iv by LC-MS/MS analysis; format: ADME, organism-based; set-up: dose 5 mg/kg, route intravenous; details: in vivo
[12] = Apparent permeability across apical to basolateral side in human Caco2 cells assessed as drug recovery at 4701.8 pmol after 2 hrs by LC-MS/MS analysis; format: ADME, cell-based; details: Caco-2, read-out: Drug recovery
[13] = Efflux ratio of apparent permeability in human Caco2 cells after 2 hrs by LC-MS/MS analysis; format: ADME, cell-based; details: Caco-2
MDA-MB-436 [14] = assay: Antitumor activity against human MDA-MB-436 cells harboring BRCA1 mutant xenografted in nude BALB/cA mouse assessed as tumor growth inhibition at 50 mg/kg, po administered once daily for 21 consecutive days measured twice per week; format: functional; details: MDA-MB-436, po, read-out: TGI
V79 = assay: Cytotoxicity against BRCA2 expressing Chinese hamster V79 cells after 3 days by CCK8 or SRB assay; format: cell-based; details: Cricetulus griseus, V79, 72 h
MDA-MB-436 [15] = assay: Induction of apoptosis in human MDA-MB-436 cells after 96 hrs by Annexin V-FITC/propidium iodide double-staining based flow cytometery; format: functional, cell-based
[16] = Elimination half-life in mouse liver microsomes at 2 uM up to 60 mins by LC-MS/MS analysis; format: ADME, microsome; details: read-out: beta t1/2
[17] = Volume of distribution in Sprague-Dawley rat at 5 mg/kg, iv by LC-MS/MS analysis; format: ADME, organism-based; details: in vivo
[18] = Retention time in mouse liver microsomes at 2 uM up to 60 mins in presence of NADPH by LC-MS/MS analysis; format: ADME, microsome; details: 1 h
CAPAN-1 [19] = assay: Cell cycle arrest in human Capan1 cells assessed as accumulation at S phase at 10 uM after 72 hrs by propidium iodide-staining based flow cytometry (reference value: 21.42%); format: functional
MDA-MB-436 [20] = assay: Induction of apoptosis in human MDA-MB-436 cells assessed as early apoptotic cells at 0.1 uM after 96 hrs by Annexin V-FITC/propidium iodide double-staining based flow cytometery (reference value: 1.90%); format: functional
[21] = Protein binding in mouse plasma at 0.5 to 50 uM after 4 hrs by LC-MS/MS analysis; format: ADME, cell-free; details: read-out: PPB (converted)
CAPAN-1 [22] = assay: Effect on total ATM protein levels in human Capan1 cells at 0.1 to 1 uM after 48 hrs by Western blot analysis; format: ADME, cell-based; details: capan-1, 48 h
MDA-MB-436 [23] = assay: Induction of apoptosis in human MDA-MB-436 cells assessed as early apoptotic cells at 1 uM after 96 hrs by Annexin V-FITC/propidium iodide double-staining based flow cytometery (reference value: 1.90%); format: functional
[24] = Stability in mouse plasma at 1 uM up to 60 mins by LC-MS/MS analysis; format: ADME, cell-free; details: read-out: Stability
MDA-MB-436 [25] = assay: Antiproliferative activity against human MDA-MB-436 cells after 7 days by CCK8 or SRB assay; format: functional, cell-based; details: MDA-MB-436, 168 h
Mus musculus [26] = assay: Toxicity in nude BALB/cA mouse xenografted with human Capan1 cells harboring BRCA2 mutant assessed as mortality at 40 mg/kg, po administered once daily for 21 consecutive days measured twice per week; format: organism-based; details: in vivo
MDA-MB-436 [27] = assay: Induction of apoptosis in human MDA-MB-436 cells assessed as caspase-3/7 activation at 0.1 to 1 uM after 72 hrs by Caspase-Glo 3/7 assay; format: functional, cell-based
[28] = Clearance in Sprague-Dawley rat at 5 mg/kg, iv by LC-MS/MS analysis; format: ADME, organism-based; details: in vivo
[29] = target: T1, Poly [ADP-ribose] polymerase 1; assay: Inhibition of PARP1 in BRCA2 deficient human Capan1 cells assessed as increase in DNA double stranded breaks by measuring gammaH2AX levels after 48 hrs by Western blot analysis
CAPAN-1 [30] = assay: Cell cycle arrest in human Capan1 cells assessed as accumulation at G2/M phase at 1 uM after 72 hrs by propidium iodide-staining based flow cytometry (reference value: 15.26%); format: functional
CAPAN-1 [31] = assay: Cell cycle arrest in human Capan1 cells assessed as accumulation at G0/G1 phase at 1 uM after 72 hrs by propidium iodide-staining based flow cytometry (reference value: 63.33%); format: functional
MDA-MB-436 [32] = assay: Induction of apoptosis in human MDA-MB-436 cells assessed as early apoptotic cells at 0.1 uM after 96 hrs in presence of pancaspase inhibitor Z-VAD-FMK by Annexin V-FITC/propidium iodide double-staining based flow cytometery (reference value: 2.32%); format: functional
[33] = Apparent permeability across apical to basolateral side in human Caco2 cells after 2 hrs by LC-MS/MS analysis; format: ADME, cell-based; details: Caco-2
[34] = Cmax in Sprague-Dawley rat at 10 mg/kg, po by LC-MS/MS analysis; format: ADME, organism-based; set-up: dose 10 mg/kg, route oral; details: in vivo
[35] = Drug metabolism in mouse liver microsomes assessed as dehydrogenation at 2 uM up to 60 mins in presence of NADPH by LC-MS/MS analysis; format: ADME, microsome; details: 1 h
[36] = Solubility of the compound in water after 24 hrs by HPLC analysis; format: physicochemical
[37] = Oral bioavailability in Sprague-Dawley rat at 10 mg/kg by LC-MS/MS analysis; format: ADME, organism-based; details: in vivo

T1 sequence (P09874 whole entry): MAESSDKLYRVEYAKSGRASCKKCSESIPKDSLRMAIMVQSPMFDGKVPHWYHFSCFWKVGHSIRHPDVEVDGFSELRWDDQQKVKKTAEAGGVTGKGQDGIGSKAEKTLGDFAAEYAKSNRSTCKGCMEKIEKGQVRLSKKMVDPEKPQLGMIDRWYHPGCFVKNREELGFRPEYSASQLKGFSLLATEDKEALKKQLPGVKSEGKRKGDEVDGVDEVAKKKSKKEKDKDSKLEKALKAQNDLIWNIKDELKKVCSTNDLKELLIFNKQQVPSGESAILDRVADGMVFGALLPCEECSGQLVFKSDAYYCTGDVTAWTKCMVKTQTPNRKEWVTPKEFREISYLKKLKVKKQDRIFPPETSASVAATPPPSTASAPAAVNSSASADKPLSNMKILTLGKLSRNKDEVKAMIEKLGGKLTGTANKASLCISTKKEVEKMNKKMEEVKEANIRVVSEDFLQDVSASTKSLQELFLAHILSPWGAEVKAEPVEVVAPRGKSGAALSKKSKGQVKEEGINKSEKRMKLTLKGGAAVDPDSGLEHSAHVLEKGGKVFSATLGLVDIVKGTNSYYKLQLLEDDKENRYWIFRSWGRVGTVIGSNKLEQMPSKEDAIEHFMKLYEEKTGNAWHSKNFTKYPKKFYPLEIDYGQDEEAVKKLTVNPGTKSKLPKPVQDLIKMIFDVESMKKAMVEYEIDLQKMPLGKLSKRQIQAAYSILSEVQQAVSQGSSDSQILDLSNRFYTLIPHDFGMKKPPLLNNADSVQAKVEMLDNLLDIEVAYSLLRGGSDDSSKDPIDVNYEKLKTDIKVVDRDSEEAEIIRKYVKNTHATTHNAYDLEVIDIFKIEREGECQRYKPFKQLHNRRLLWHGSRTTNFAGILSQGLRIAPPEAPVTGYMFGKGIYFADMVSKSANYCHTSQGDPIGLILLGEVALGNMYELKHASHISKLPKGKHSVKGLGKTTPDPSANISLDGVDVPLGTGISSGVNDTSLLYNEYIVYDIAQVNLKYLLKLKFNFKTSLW

N#Cc1cccnc1N1CCN(C(=O)c2cc(Cc3n[nH]c(=O)c4ccccc34)cc(F)c2F)CC1
Activity (Mus musculus [1]): Non-Toxic | inhibition [2]: Dose-dependent effect | inhibition [3]: Dose-dependent effect | inhibition [4]: Dose-dependent effect | inhibition [5]: Active | Activity (MDA-MB-436 [6]): 18.6% | Activity (CAPAN-1 [7]): 5.15% | Activity (CAPAN-1 [8]): 55.92% | Activity (Mus musculus [9]): Non-Toxic | Activity (CAPAN-1 [10]): Dose-dependent effect | Cmax [11]: 3260 ng/mL | recovery at 2 h [12]: 91.5% | efflux ratio at 2 h [13]: 5 | inhibition in vivo at 50 mg/kg (MDA-MB-436 [14]): 94.2% | IC50 (V79): 10 to 10.3 µM | Activity (MDA-MB-436 [15]): Dose-dependent effect | half-life at 2 µM [16]: 3 min | Vd [17]: 27.5 L/kg | Retention_time [18]: 7.8 min | Activity (CAPAN-1 [19]): 22.4% | Activity (MDA-MB-436 [20]): 5.36% | fraction unbound at 4 h, up to 50 µM [21]: 0.012 | Activity (CAPAN-1 [22]): Non-Toxic | Activity (MDA-MB-436 [23]): 7.09% | remaining at 1 h, 1 µM [24]: 105% | IC50 (MDA-MB-436 [25]): 0.2 nM | Activity (Mus musculus [26]): Non-Toxic | Activity (MDA-MB-436 [27]): Active | clearance [28]: 60 mL/min/kg | inhibition [29]: Dose-dependent effect | Activity (CAPAN-1 [30]): 49.95% | Activity (CAPAN-1 [31]): 22.38% | Activity (MDA-MB-436 [32]): 6.48% | Papp A→B at 2 h [33]: 6.8 ×10⁻⁶ cm/s | Cmax [34]: 74.4 ng/mL | Drug metabolism [35]: Metabolite_Detected | solubility at 24 h [36]: 1.1 µg/mL (≈ 2.26 µM) | bioavailability [37]: 4.7%
